Measurements from PubChem BioAssay AID192 (DTP/NCI, 2004).
Values joined by “and” are separate entries in the source; they are usually repeats but may differ in a detail not shown here. Equal entries are not always repeated. Inconclusive results and toxic doses are left out.

Test system: BDF1 mice, B16 melanoma ip, median survival T/C
Experiment: NCI In Vivo Anticancer Drug Screen. Data for tumor model B16 Melanoma (intraperitoneal) in B6D2F1 (BDF1) mice
Details: endpoint: median survival time, higher = longer survival
Method in brief: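 Tumor-bearing mice received test compound or vehicle. Survival or tumor size was then measured in both groups. The treated-group figure was divided by the control-group figure.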

[1] = dose: 0.78 mg/kg/injection, schedule: Q01DX009 (ip), vehicle: saline
[2] = dose: 12.5 mg/kg/injection, schedule: Q01DX009 (ip), vehicle: saline
[3] = dose: 100.0 mg/kg/injection, schedule: Q04DX003 (ip), vehicle: saline
[4] = dose: 200.0 mg/kg/injection, schedule: Q04DX003 (ip), vehicle: saline
[5] = dose: 400.0 mg/kg/injection, schedule: Q04DX003 (ip), vehicle: saline
[6] = dose: 12.5 mg/kg/injection, schedule: Q01DX009 (ip), vehicle: Klucel (hydroxypropylcellulose) (HPC)
[7] = dose: 25.0 mg/kg/injection, schedule: Q01DX009 (ip), vehicle: Klucel (hydroxypropylcellulose) (HPC)
[8] = dose: 50.0 mg/kg/injection, schedule: Q01DX009 (ip), vehicle: Klucel (hydroxypropylcellulose) (HPC)
[9] = dose: 100.0 mg/kg/injection, schedule: Q01DX009 (ip), vehicle: Klucel (hydroxypropylcellulose) (HPC)
[10] = dose: 25.0 mg/kg/injection, schedule: Q01DX009 (ip), vehicle: saline with Tween-80
[11] = dose: 50.0 mg/kg/injection, schedule: Q01DX009 (ip), vehicle: saline with Tween-80
[12] = dose: 100.0 mg/kg/injection, schedule: Q01DX009 (ip), vehicle: saline with Tween-80
[13] = dose: 100.0 mg/kg/injection, schedule: Q01DX009 (ip), vehicle: saline
[14] = dose: 200.0 mg/kg/injection, schedule: Q01DX009 (ip), vehicle: Klucel (hydroxypropylcellulose) (HPC)
[15] = dose: 200.0 mg/kg/injection, schedule: Q01DX009 (ip), vehicle: saline
[16] = dose: 400.0 mg/kg/injection, schedule: Q01DX009 (ip), vehicle: saline
[17] = dose: 400.0 mg/kg/injection, schedule: Q01DX009 (ip), vehicle: Klucel (hydroxypropylcellulose) (HPC)

With `COC(=O)[C@H]1[C@H]2C[C@@H]3c4[nH]c5cc(OC)ccc5c4CCN3C[C@H]2C[C@@H](OC(=O)c2cc(OC)c(OC)c(OC)c2)[C@@H]1OC` the T/C (dose: 0.04 mg/kg/injection, schedule: Q01DX009 (ip), vehicle: saline) was 91 % of control, the T/C (dose: 0.09 mg/kg/injection, schedule: Q01DX009 (ip), vehicle: saline) was 91 % of control and the T/C (dose: 0.19 mg/kg/injection, schedule: Q01DX009 (ip), vehicle: saline) was 90 % of control. The T/C (dose: 0.39 mg/kg/injection, schedule: Q01DX009 (ip), vehicle: saline) was 91 % of control and the T/C [1] was 88 % of control.

For `Cc1ccc(NS(=O)(=O)c2ccc([N+](=O)[O-])cc2)cc1`, the T/C (dose: 25.0 mg/kg/injection, schedule: Q04DX003 (ip), vehicle: Klucel (hydroxypropylcellulose) (HPC)) was 115 % of control, the T/C (dose: 50.0 mg/kg/injection, schedule: Q04DX003 (ip), vehicle: Klucel (hydroxypropylcellulose) (HPC)) was 103 % of control and the T/C (dose: 100.0 mg/kg/injection, schedule: Q04DX003 (ip), vehicle: Klucel (hydroxypropylcellulose) (HPC)) was 108 % of control. For the same molecule, the T/C (dose: 200.0 mg/kg/injection, schedule: Q04DX003 (ip), vehicle: Klucel (hydroxypropylcellulose) (HPC)) was 97 % of control and the T/C (dose: 400.0 mg/kg/injection, schedule: Q04DX003 (ip), vehicle: Klucel (hydroxypropylcellulose) (HPC)) was 115 % of control.

With `C[N+](C)(C)CCCC1C2CCC(C2)C1C[N+](C)(C)C` (stereo unspecified) the T/C [2] was 110 % of control and the T/C (dose: 25.0 mg/kg/injection, schedule: Q01DX009 (ip), vehicle: saline) was 110 % of control.

In the case of `CC(=O)C1(O)CCCCC1`, the T/C [3] is reported as 95 % of control, the T/C [4] is reported as 100 % of control and the T/C [5] is reported as 100 % of control.

In the case of `CCCCCCCCCCCCSC1=CC(=O)C(OC)=C(OC)C1=O`, the T/C (dose: 6.25 mg/kg/injection, schedule: Q01DX030 (ip), vehicle: saline with Tween-80) is reported as 99 % of control, the T/C (dose: 12.5 mg/kg/injection, schedule: Q01DX030 (ip), vehicle: saline with Tween-80) is reported as 95 % of control and the T/C (dose: 25.0 mg/kg/injection, schedule: Q01DX030 (ip), vehicle: saline with Tween-80) is reported as 91 % of control.

`CC12CCC3C(CCC4CC(OC(=O)Cc5ccc(N(CCCl)CCCl)cc5)CCC43C)C1CCC(=O)N2` (stereo unspecified) was tested, and the T/C (dose: 0.75 mg/kg/injection, schedule: Q01DX009 (ip), vehicle: saline) was 113 % of control, the T/C (dose: 1.5 mg/kg/injection, schedule: Q01DX009 (ip), vehicle: saline with Tween-80) was 110 % of control and the T/C (dose: 1.5 mg/kg/injection, schedule: Q01DX009 (ip), vehicle: saline) was 121 % of control. The T/C (dose: 3.0 mg/kg/injection, schedule: Q01DX009 (ip), vehicle: saline) was 121 % of control and the T/C (dose: 12.0 mg/kg/injection, schedule: Q01DX009 (ip), vehicle: saline) was 154 % of control.

In the case of `O=C1C=C(Nc2ccccc2)c2ccccc2C1=O`, the T/C [6] is reported as 93 % of control, the T/C [7] is reported as 105 % of control and the T/C [8] is reported as 88 % of control. The T/C [9] was 87 % of control.

In the case of `O=S(CCCl)CCCl`, the T/C (dose: 1.56 mg/kg/injection, schedule: Q01DX009 (ip), vehicle: Klucel (hydroxypropylcellulose) (HPC)) is reported as 95 % of control and 107 % of control, the T/C (dose: 3.12 mg/kg/injection, schedule: Q01DX009 (ip), vehicle: Klucel (hydroxypropylcellulose) (HPC)) is reported as 94 % of control and 103 % of control and the T/C (dose: 6.25 mg/kg/injection, schedule: Q01DX009 (ip), vehicle: Klucel (hydroxypropylcellulose) (HPC)) is reported as 111 % of control. For the same molecule, the T/C [6] was 99 % of control, the T/C [7] was 89 % of control and the T/C [8] was 91 % of control.

In the case of `Cc1ccc(C(C)(N=[N+]=[N-])c2ccccc2)cc1C` (stereo unspecified), the T/C [10] is reported as 94 % of control, the T/C [11] is reported as 93 % of control and the T/C [12] is reported as 90 % of control. For the same molecule, the T/C (dose: 200.0 mg/kg/injection, schedule: Q01DX009 (ip), vehicle: saline with Tween-80) was 90 % of control.

With `COC(=O)Nc1ccc(Cc2ccc(NC(=O)OC)cc2)cc1` the T/C (dose: 6.25 mg/kg/injection, schedule: Q01DX009 (ip), vehicle: saline with Tween-80) was 107 % of control, the T/C (dose: 12.5 mg/kg/injection, schedule: Q01DX009 (ip), vehicle: saline with Tween-80) was 110 % of control and the T/C [10] was 112 % of control. For the same molecule, the T/C [11] was 115 % of control.

With `COC(CCC(C)C1OC23CC(OC(=O)CC(C(C)O)OC(=O)CC(O)(O2)C(C)CC3(C)C)C1C)c1cccc(O)c1` (stereo unspecified) the T/C (dose: 12.5 micrograms/kg/injection, schedule: Q01DX009 (ip), vehicle: other) was 103 % of control, the T/C (dose: 25.0 micrograms/kg/injection, schedule: Q01DX009 (ip), vehicle: other) was 101 % of control and the T/C (dose: 50.0 micrograms/kg/injection, schedule: Q01DX009 (ip), vehicle: other) was 97 % of control. For the same molecule, the T/C (dose: 100.0 micrograms/kg/injection, schedule: Q01DX009 (ip), vehicle: other) was 101 % of control.

In the case of `C=CC=O`, the T/C (dose: 0.45 mg/kg/injection, schedule: Q01DX009 (ip), vehicle: saline) is reported as 95 % of control, the T/C (dose: 0.9 mg/kg/injection, schedule: Q01DX009 (ip), vehicle: saline) is reported as 88 % of control and the T/C (dose: 1.8 mg/kg/injection, schedule: Q01DX009 (ip), vehicle: saline) is reported as 90 % of control.

In the case of `CC(C)n1c(=S)[nH]c2ccccc2c1=O`, the T/C (dose: 16.5 mg/kg/injection, schedule: Q01DX009 (ip), vehicle: saline with Tween-80) is reported as 102 % of control, the T/C [10] is reported as 94 % of control and the T/C (dose: 37.5 mg/kg/injection, schedule: Q01DX009 (ip), vehicle: saline with Tween-80) is reported as 100 % of control. The T/C [9] was 95 % of control, the T/C [12] was 87 % of control and the T/C [13] was 117 % of control. The T/C [14] was 90 % of control.

With `CC1(C)N=C(N)N=C(N)N1c1cccc(CC(=O)Nc2ccc(S(=O)(=O)F)cc2)c1` the T/C [7] was 103 % of control, the T/C [8] was 102 % of control and the T/C [9] was 109 % of control. The T/C (dose: 150.0 mg/kg/injection, schedule: Q01DX009 (ip), vehicle: Klucel (hydroxypropylcellulose) (HPC)) was 109 % of control.

In the case of `CNC(=S)N/N=C(\C=N\NC(=S)NC)c1ccc(C)cc1`, the T/C [8] is reported as 101 % of control, the T/C [9] is reported as 90 % of control and the T/C [14] is reported as 89 % of control.

`NC(=O)NOCC1NC(=O)C(CONC(N)=O)NC1=O` (stereo unspecified) was tested, and the T/C [13] was 98 % of control, the T/C [15] was 94 % of control and the T/C [4] was 102 % of control. For the same molecule, the T/C [16] was 97 % of control and the T/C [5] was 94 % of control.

In the case of `COC(=O)CCNCc1ccccc1`, the T/C [9] is reported as 100 % of control, the T/C [14] is reported as 96 % of control and the T/C [17] is reported as 93 % of control.

For `C1CC[N-]CC1.CC(=N\O)/C(C)=N/O.CC(=N\O)/C(C)=N/O.[CH3-].[Co+2]`, the T/C [7] was 105 % of control, the T/C [8] was 91 % of control and the T/C [9] was 88 % of control.

For `OCCN1CCN(CCCN2c3ccccc3Oc3ccc(C(F)(F)F)cc32)CC1`, the T/C [1] was 105 % of control, the T/C (dose: 1.56 mg/kg/injection, schedule: Q01DX009 (ip), vehicle: saline) was 100 % of control and the T/C (dose: 3.12 mg/kg/injection, schedule: Q01DX009 (ip), vehicle: saline) was 107 % of control. For the same molecule, the T/C (dose: 6.25 mg/kg/injection, schedule: Q01DX009 (ip), vehicle: saline) was 102 % of control and the T/C [2] was 87 % of control.

With `Nc1ccc2ccc(O)cc2c1` the T/C (dose: 75.0 mg/kg/injection, schedule: Q04DX003 (ip), vehicle: saline with Tween-80) was 105 % of control and the T/C (dose: 150.0 mg/kg/injection, schedule: Q04DX003 (ip), vehicle: saline with Tween-80) was 95 % of control.

With `CC(C)C1NC(=O)NC1=O` (stereo unspecified) the T/C [13] was 100 % of control, the T/C [3] was 100 % of control and the T/C [15] was 95 % of control. The T/C [4] was 106 % of control, the T/C [16] was 100 % of control and the T/C [5] was 97 % of control.

For `CC1OC(OCc2ccc(-c3ccccc3)cc2)CC(N)C1O` (stereo unspecified), the T/C (dose: 1.56 mg/kg/injection, schedule: Q01DX009 (ip), vehicle: water) was 105 % of control, the T/C (dose: 3.13 mg/kg/injection, schedule: Q01DX009 (ip), vehicle: water) was 95 % of control and the T/C (dose: 6.25 mg/kg/injection, schedule: Q01DX009 (ip), vehicle: water) was 99 % of control. The T/C (dose: 12.5 mg/kg/injection, schedule: Q01DX009 (ip), vehicle: water) was 104 % of control and the T/C (dose: 25.0 mg/kg/injection, schedule: Q01DX009 (ip), vehicle: water) was 87 % of control.

With `COC(=O)CNc1ccc(S(=O)(=O)c2ccc(N)cc2)cc1` the T/C [9] was 103 % of control, the T/C [14] was 106 % of control and the T/C [17] was 120 % of control.

In the case of `O=Nc1ccc(O)c(=O)cc1`, the T/C (dose: 1.0 mg/kg/injection, schedule: Q01DX009 (ip), vehicle: saline with Tween-80) is reported as 97 % of control and the T/C (dose: 2.0 mg/kg/injection, schedule: Q01DX009 (ip), vehicle: saline with Tween-80) is reported as 90 % of control.
